Laboratory results published in US20050107611A1, “Pyrazolyl-substituted triazoloquinoxalines” (priority 2001, published 2005).

Key:
[1] = target: T1, human A3 adenosine receptor (Homo sapiens, UniProt P0DMS8); experiment: Receptor binding assay with [3H]PSB-11 on recombinant A3-adenosine receptors expressed in CHO cells; settings: for Ki: Table 2, [3H]PSB-11, read-out: A3 K1
T1 construct: expressed in transfected cells; host or cells: CHO cells
T1 sequence (P0DMS8 1-318): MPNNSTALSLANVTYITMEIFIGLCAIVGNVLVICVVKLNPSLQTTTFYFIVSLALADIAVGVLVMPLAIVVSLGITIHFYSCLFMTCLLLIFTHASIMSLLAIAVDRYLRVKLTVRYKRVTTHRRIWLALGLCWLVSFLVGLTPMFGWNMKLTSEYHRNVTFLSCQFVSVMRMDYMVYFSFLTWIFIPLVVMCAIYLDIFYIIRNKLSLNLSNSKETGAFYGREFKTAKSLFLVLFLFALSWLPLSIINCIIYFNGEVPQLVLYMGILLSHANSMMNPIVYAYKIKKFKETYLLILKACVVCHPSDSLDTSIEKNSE
Text: (§1) The data of the biological tests that are cited below results from radioligand-binding assays on A1, A2A, A2B and A3 adenosine receptors (ARs).
(§2) The following selective radioligands are used in the biological tests: • [^3H]CCPA (for A1 ARs) [Klotz et al., Naunyn-Schmiedeberg's Arch. Pharmacol., 340, 679 (1989)] • [^3]MSX-2 (for A2A ARs) [Muiller et al., Eur. J. Pharm. Sci., 10, 259 (2000)] • [^3H]ZM241385 (for A2B ARs_[X.-D. Ji, K. A. Jacobson, Drug Des. Discov., 16, 217 (1999)] • [^3H]PSB-11 (new antagonistic radioligand for human A3 ARs) [M. Dieckmann, M. Thorand, V. Ozola, C. E. Muiller, in Vorbereitung [Preparation] (2001)]. • [^125I]AB-MECA (for rat-A3 ARs) [Olah et al., Mol. Pharmacol., 45, 978 (1994)]. Description of the Assays That are Used for Testing Substances Production of Tissue Preparations Made from Rat Brains
For CHO cells, which express the A3-adenosine receptor, the operating steps are also performed analogously to the A1-adenosine receptor-CHO culture. The medium is used as described above.
Preparation of Recombinant Human A3-Adenosine Receptors Expressed in CHO Cells for A3-Adenosine Receptor Binding Studies
2 to 3 ml of ice-cold TRIS buffer (pH 7.4; 50 mmol) is added to the tissue culture dishes. The cells are scraped off from the plates with a rubber scraper and collected in a beaker. The plates are rinsed with another 1 to 2 ml of TRIS buffer (pH 7.4; 50 mmol). The cell suspension is dispersed into centrifuge tubes and centrifuged at 4° C., 35,000 g, for 20 minutes. The supernatant is discarded, and the pellet is resuspended in TRIS buffer (pH 7.4; 50 mmol) with the homogenizer at the highest level for 3 to 4 seconds. This suspension is again centrifuged. The washing process is repeated another time. The pellet that is obtained is resuspended with the least possible TRIS buffer (pH 7.4; 50 mmol) and delivered in aliquots (0.25 ml and 0.5 ml).
(§3) The test substances are dissolved in DMSO to 10 mmol. The final concentration of DMSO in the assay is 2.5% for A1- and A2A-adenosine receptor assays and 1-2% for A2B- and A3-assays. Dilution series of the test substances are produced from the stock solution. Five to eight different test concentrations, which comprise 3 orders of magnitude (e.g., 1 nm to 1000 nm), are used.
Receptor Binding Assay with [^3H]PSB-11 on Recombinant A3-Adenosine Receptors Expressed in CHO Cells:
The assay is performed with […] according to the instructions under the receptor-binding assays with consideration for the above-listed amounts and solutions. The dilution in the assay is 1:50. The DMSO content is 2% here. The incubation at 23° C. in the oscillating water bath lasts for 45 minutes.
(§4) The mean value is calculated from three independent experiments. IC50 and K, values are obtained from the Cheng-Prusoff equation, the concentration and the KD value of the radioligand. For calculation, the program GraphPadPrism™, Version 3.0 (GraphPad, San Diego, Calif., USA), was used.

human A2B-receptor = target: T2, human A2B-receptor (Homo sapiens, UniProt P29275); experiment: Receptor binding assay with [3H]ZM241385 on recombinant A2B-adenosine receptors in HEK cells; settings: for Ki: Table 2, [3H]ZM241385, read-out: A2B K1
T2 construct: purchased Receptor Biology USA via Perkin Elmer Life Sciences, Cologne, Germany; host or cells: HEK cells (membranes)
T2 sequence (P29275 1-332): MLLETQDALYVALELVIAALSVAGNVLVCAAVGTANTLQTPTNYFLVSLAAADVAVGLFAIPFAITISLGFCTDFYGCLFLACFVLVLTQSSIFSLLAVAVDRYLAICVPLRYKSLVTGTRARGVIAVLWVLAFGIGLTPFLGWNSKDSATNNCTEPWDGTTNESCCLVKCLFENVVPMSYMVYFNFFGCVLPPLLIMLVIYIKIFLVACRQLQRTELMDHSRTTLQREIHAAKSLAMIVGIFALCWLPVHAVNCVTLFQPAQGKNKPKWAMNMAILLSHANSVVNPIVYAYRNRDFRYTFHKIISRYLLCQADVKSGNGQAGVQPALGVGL
Text: as §1, §2
In addition, A28-adenosine receptor membranes are prepared, whereby, for example, finished prepared membranes of HEK cells, which express the human A2B-receptor in high density (about 4 pmol/mg of protein), were available commercially (Receptor Biology USA via Perkin Elmer Life Sciences, Cologne, Germany).
as §3, with “used. […]” for “used.”
as §4

Row | Molecule | Ki [1] [nM] | A2B % inhib. @ 1 μmol (human A2B-receptor) | Ki (human A2B-receptor) [nM] | A3 % inhib. @ 1 μmol [1]
1 | COc1ccc2c(c1)nc(-c1cc(Cl)n[nH]1)c1nnc(Cc3cccs3)n12 [4-[3(5)-Chloro-1H-pyrazol-5(3)-yl]-7-methoxy-1-(2-thienylmethyl)-[1,2,4]triazolo[4,3-a]-quinoxaline] | 1.9 | (0%) | > 1000 | –
2 | Clc1cc(-c2nc3ccccc3n3c(-c4ccoc4)nnc23)n[nH]1 [Y = C-(3-Furyl), R5 = H, R6 = Cl] | > 1000 | (25%) | > 1000 | (31%)
3 | Cn1nc(-c2nc3ccccc3n3c(Cc4cccs4)nnc23)cc1Cl [Y = C—CH2-(2-Thienyl), R5 = CH3, R6 = Cl, 4-(5-Chloro-1H-1-methyl-pyrazol-3-yl)-1-(2-thienylmethyl)-[1,2,4]triazolo[4,3-a]-quinoxaline] | 86 | (22%) | > 1000 | –
4 | 4-(chloropyrazolyl)-1-(3-phenylpropyl)-[1,2,4-]triazolo[4,3-a]quinoxaline [Y = C—CH2—CH2—CH2-Ph, R5 = H, R6 = Cl] | > 1000 | (18%) | > 1000 | (32%)
5 | Clc1cc(-c2nc3ccccc3n3nnnc23)n[nH]1 [Y = N, R5 = H, R6 = Cl, 4-[3(5)-Chloro-1H-pyrazol-5(3)-yl]tetrazolo[1,5-a]quinoxaline] | – | (13%) | > 1000 | (53%)
6 | Clc1cc(-c2nc3ccccc3n3cnnc23)[nH]n1 [Y = C—H, R5 = H, R6 = Cl] | 142 | (0%) | > 1000 | –
7 | COc1ccc2c(c1)nc(-c1cc(Cl)[nH]n1)c1nncn12 [Y = C—H, R3 = OCH3, R5 = H, R6 = Cl, 4-[3(5)-Chloro-1H-pyrazol-5(3)-yl]-7-methoxy-[1,2,4]triazolo[4,3-a]-quinoxaline] | 372 | (8%) | > 1000 | –
